The values that follow come from US11690816B2, “Unit doses for immediate release of GHB or of one of the therapeutically acceptable salts thereof, administered orally, and the use thereof to maintain alcohol abstinence” (DEBREGEAS ET ASSOCIES PHARMA, priority 2016, dated 2023).

Series [1] relates to alcohol-dependent patients. Briefly: phase IIb/III clinical trial, maintaining of alcohol abstinence (PDA, TAC, HDD). The class given is in vivo, human. The method, then:
The following doses were examined: • 0.75 g sodium oxybate three times daily—i.e. 2.25 g per day (99 patients) • 1.25 g sodium oxybate three times daily—i.e. 3.75 g per day (99 patients) • 1.75 g sodium oxybate three times daily—i.e. 5.25 g per day (99 patients) • 2.25 g sodium oxybate three times daily—i.e. 6.75 g per day (100 patients) • Placebo group (99 patients)
The unit doses, packaged in sachets, were administered via oral route in solid form, more particularly in the form of granules.
Efficacy was measured via percentage days of abstinence (PDA), reduced daily intake of alcohol (TAC) and the number of heavy drinking days (HDD). It was sought to analyse the correlation between efficacy of treatment and dose in mg/kg/d. In this respect the conversion to mg/kg/d was made using the following formula: unit dose in g of sodium oxybate×3/patient weight.
In the remainder of the present description, reference is made to two categories of alcoholic patients: • patients with mild to moderate alcohol dependence; • patients with severe to very severe alcohol dependence.

Series [2] can be described thus: AUC and CMax values dependent on the doses used. The note with it: human, in vivo, oral. An excerpt:
The applicant has found the following AUC and CMax values, which are dependent on the doses used, for doses of 0.37 g, 0.75 g, 1.25 g and 1.75 g: […]

The conditions of series [3]: patients with moderate or severe liver disease, same administered dose; cited from earlier work.

For orientation: AUC(0-t) means exposure summed from dosing to a finite time, without extrapolation to infinity. Low readings indicate less exposure, high ones more exposure. What is called Cmax is the maximum level reached in the sampled fluid or tissue. As to `O=C(O)CCCO` [sodium oxybate], the “efficacy as share of the efficacy of the optimal dose” value in series [1] (mild or moderate alcohol dependence, doses higher than 1.25 g) was “about 20%”. Besides, the “unit dose of optimum efficacy (statistical models)” value in series [1] (mildly or moderately alcohol-dependent patients without liver disease, three times daily) is on record as 0.75 g. In series [1] (severe or very severe alcohol dependence without liver disease, above 1.75 g three times daily), the side effects result is “side effects become more numerous and frequent, in particular a sedative effect with nausea and marked fatigue”. In addition, in series [1] (severe or very severe alcohol dependence, without liver disease, three times daily), the “optimum unit dose (polynomial regression models)” value is on record as “about 1.5 g”. For the same compound, the “efficacy lower than that of the optimal dose” value in series [1] (severe or very severe alcohol dependence, doses lower than 1.25 g or higher than 1.75 g) is “up to 80%”. Besides, the AUC(0-t) worked out at 14800 ng·h/mL in series [2] (0.37 g dose), 30000 ng·h/mL in series [2] (0.75 g dose), 50000 ng·h/mL in series [2] (1.25 g dose) and 70000 ng·h/mL in series [2] (1.75 g dose). Besides, the maximum concentration (Cmax) came out at 11500 ng/mL in series [2] (0.37 g dose), 23000 ng/mL in series [2] (0.75 g dose), 39000 ng/mL in series [2] (1.25 g dose) and 54500 ng/mL in series [2] (1.75 g dose).
Turning to `O=C(O)CCCO` [gamma-hydroxybutyric acid], the “increase of the main pharmacokinetic parameters compared with patients not suffering from liver disease” value in series [3] is recorded as “over 120%”.
